This note sets out measurements from patent US20240066115A1, “DETERMINATION AND USES OF CD8+ T CELL EPITOPES” (priority 2021, published 2024).

One data set concerns GL261/vIII. Kind of data set: Intracranial glioma model GL261/vIII, peptide vaccination. The format is in vivo. Particulars: candidate peptides as individual vaccines. The text has this: Y6-pepvIII is effective in an intracranial glioma model. Because of its significant effect on survival in the EGFRvIII subcutaneous tumor model, we selected Y6-pepvIII for in-depth analysis. First, we tested this vaccine in a model that more accurately represented human gliomas. We utilized the commonly employed murine glioma 261 (GL261) intracranial tumor model (30) which was transfected with the EGFRvIII cDNA to yield a line with high expression, GL261/vIII. We explored intracranial injection protocols that would lead to reproducible survival curves and identified conditions where 90% of the animals survived 23-29 days. To compare vaccine efficacy, mice received either Montanide (ISA51) alone, 100 ug of KLH with Montanide, 100 ug of KLH conjugated to pepvIII or Y6-pepvIII in Montanide following the vaccination schedule outlined in FIG. 2A. While KLH treatment had no measurable impact on survival, vaccination with the pepvIII induced a modest but statistically significant 23% increase in survival vs. control mice (FIG. 2B; median survival: Control=26.0 days, KLH=27 days, pepvIII=32 days, p<0.0001).
Intracranial model. Six to 8-week old C57BL/6J mice (Jackson Laboratories, Bar Harbor, ME), had gliomas established by stereotactically injecting 10,000 GL261/vIII […] CT2A/vIII cells into the left striatum (2 mm posterior to the coronal suture and 2 mm lateral to the sagittal suture) on day 0 of the experimental process as previously described. Briefly, mice were anesthetized with isoflurane (4%) and placed in the stereotactic frame. An incision was made, and a burr hole was drilled over the striatum. GL261/vIII or CT2A/vIII cells were injected at the above stated coordinates using a Hamilton Microsyringe controlled by an automated micro-pump injection system. Mice were assigned to treatment groups randomly and tumor progression was monitored by bioluminescent signal as detected by the IVIS imaging system (Caliper Life Sciences, Hopkinton, MA).
For survival experiments, each treatment group consisted of 6 to 15 mice. […]

A further data set concerns GL261/vIII target cells. Kind of data set: Cytotoxic T cell killing assay, T cells from vaccinated mice. Particulars: 50:1 effector to target ratio.

Where a SMILES comes first, the peptide text is derived from it.

Regarding LEEKKNYV, the “increase in survival relative to KLH treated control mice” value in the data set on GL261/vIII is on record as 30%.

Take `CC(C)C[C@H](N)C(=O)N[C@@H](CCC(=O)O)C(=O)N[C@@H](CCC(=O)O)C(=O)N[C@@H](CCCCN)C(=O)N[C@@H](CCCCN)C(=O)N[C@@H](Cc1ccc(O)cc1)C(=O)N[C@@H](CC(N)=O)C(=O)N[C@@H](Cc1ccc(O)cc1)C(=O)N[C@H](C(=O)N[C@H](C(=O)N[C@H](C(=O)N[C@@H](CC(=O)O)C(=O)N[C@@H](Cc1c[nH]cn1)C(=O)O)[C@@H](C)O)C(C)C)C(C)C` [Y6-pepvIII] (H-LEEKKYNYVVTDH-OH): the “cytotoxic activity against GL261/wt target cells” value with GL261/wt target cells is recorded as “no cytotoxic activity”. Also, the “cytotoxic capacity of T cells of vaccinated mice” value in the data set on GL261/vIII target cells is “increased cytotoxic capacity”.

On to `CC(C)C[C@H](N)C(=O)N[C@@H](CCC(=O)O)C(=O)N[C@@H](CCC(=O)O)C(=O)N[C@@H](CCCCN)C(=O)N[C@@H](CCCCN)C(=O)NCC(=O)N[C@@H](CC(N)=O)C(=O)N[C@@H](Cc1ccc(O)cc1)C(=O)N[C@H](C(=O)N[C@H](C(=O)N[C@H](C(=O)N[C@@H](CC(=O)O)C(=O)N[C@@H](Cc1c[nH]cn1)C(=O)O)[C@@H](C)O)C(C)C)C(C)C` [pepvIII, reference compound], for which, in the data set on GL261/wt target cells, the “cytotoxic activity against GL261/wt target cells” value was “no cytotoxic activity”.

Take LEEYVVTDH: the “increase in survival relative to KLH treated control mice” value with GL261/vIII turned out to be 54%.

As to NYVVTDH, the “increase in survival relative to KLH treated control mice” value in the data set on GL261/vIII amounted to 18%.
